Results: patent publication US20040072825A1, “2-(2-(4-((2r)-2-methyl-3-(10h-phenothiazin-10-yl)propyl)-1-piperazinyl)-ethoxy) ethanol, process for the preparation thereof, pharmaceutical compositions containing said compound and therapeutic uses thereof” (priority 2000, published 2004)
Marks after values point to notes of the source that are not given here.

Tests used:
[1] = molecular target: T1, D4.4 dopaminergic receptor (Homo sapiens, UniProt P21917); test: Radioligand binding, D4.4 receptor (CHO cell culture); details: for IC50: D4.4, competitive binding, read-out: Affinity pIC50 (-log IC50) (converted)
T1 construct: expressed in transfected cells; host or cells: CHO
T1 sequence (P21917 1-419): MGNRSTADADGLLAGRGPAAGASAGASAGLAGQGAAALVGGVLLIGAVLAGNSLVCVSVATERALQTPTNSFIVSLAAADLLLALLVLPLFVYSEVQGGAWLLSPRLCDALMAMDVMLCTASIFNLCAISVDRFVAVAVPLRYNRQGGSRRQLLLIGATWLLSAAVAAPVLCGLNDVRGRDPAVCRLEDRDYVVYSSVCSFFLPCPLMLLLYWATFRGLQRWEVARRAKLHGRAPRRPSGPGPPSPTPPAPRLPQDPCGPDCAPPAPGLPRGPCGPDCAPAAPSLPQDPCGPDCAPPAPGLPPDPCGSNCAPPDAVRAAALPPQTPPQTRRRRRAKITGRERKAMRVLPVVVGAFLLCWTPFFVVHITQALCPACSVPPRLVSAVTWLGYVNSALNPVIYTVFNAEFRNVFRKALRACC
Experimental: (§1) The test substances, biological materials and experimental protocols used in the study are described in Moguilevsky N. et al. (1994) Eur. J. […] List S. J. (1981) Proc. Natl. Acad. Sci.78:2620-2624; MacKenzie R. G. et al. (1994) Eur. J. Pharmacol. 266:79-85; Van Tol et al., (1992) Nature, 358:149-152. […] Filtermat A, Walac), then washed with cold buffer using a filtration unit ‘Cell Harvester’ (Brandel, Packard or Tomtec). The bound radioactivity is measured using a scintillation liquid (Formula 989 or Microscint 0, Packard) or solid (Meltilex B/HS, Wallac), and a scintillation counter (LS 6000, Beckman; Topcount, Packard; Betaplate, Wallac). […] Each experiment was performed in duplicate (n=2). In parallel, a positive control (concentration of reference substance causing 50% inhibition of radioligand specific binding) is tested to validate the assay. For competition experiments, membranes are incubated in the buffer containing the radioligand and increasing concentrations of unlabeled test substances. Each binding assay is validated with a reference compound tested in parallel. […] where BO and BI represent the total binding in the absence and presence of the unlabelled drug (in dpm/assay) and NSB is the amount of non specific binding (in dpm/assay). Analysis of raw data and pIC50 calculation is performed by computerized non-linear curve fitting methods using a set of equations describing competitive interactions between labelled and unlabeled ligands which obey the law of mass action. IC50 represents the concentration of the test substance inhibiting 50% of the specific binding of the radioligand. It is determined in competitive binding experiments by measuring the binding of a single concentration of a radioactive ligand at equilibrium with various concentrations of the unlabeled test substance. pIC50=−log IC50

[2] = molecular target: human H1 histaminic receptor (Homo sapiens, UniProt P35367); test: Radioligand binding, human H1 receptor (CHO cell culture); details: for IC50: H1, competitive binding, read-out: Affinity pIC50 (-log IC50) (converted)
Experimental: as §1

D2 dopaminergic receptor = D2 dopaminergic receptor (Rattus norvegicus, UniProt P61169); test: Radioligand binding, D2 receptor (rat striatum membranes); details: for IC50: D2, competitive binding, read-out: Affinity pIC50 (-log IC50) (converted)
Experimental: as §1

[3] = molecular target: T2, 5-HT2 serotonergic receptor (Rattus norvegicus, UniProt P14842); test: Radioligand binding, 5-HT2 receptor (rat cerebral cortex); details: for IC50: 5-HT2, competitive binding, read-out: Affinity pIC50 (-log IC50) (converted)
T2 construct: the rat cerebral cortex (5-HT2 receptor); from tissue; host or cells: rat cerebral cortex
Experimental: as §1

[4] = molecular target: T3, human D3 dopaminergic receptor (Homo sapiens, UniProt P35462); test: Radioligand binding, human D3 receptor (CHO cell culture); details: for IC50: D3, competitive binding, read-out: Affinity pIC50 (-log IC50) (converted)
T3 construct: expressed in transfected cells; host or cells: CHO
Experimental: as §1

[5] = tested on: vomiting induced by cisplatin in ferrets; test: Cisplatin-induced emesis in ferrets, single oral administration; format: in vivo, ferret; details: for Proportion of animal vomiting: 60 min before cisplatin i.v., 5 h observation
Experimental: Cisplatin-induced emesis in ferrets is largely considered as the most suitable animal model for the study of drug activity against chemotherapy-induced vomiting in man (Georges L. King. Animal models in the study of vomiting. Can. J. Physiol. Pharmacol. 68, 260-268, 1988).
Three compounds, dixyrazine dihydrochloride and its (R) and (S) enantiomers were tested for their activity against vomiting induced by cisplatin in ferrets following single oral administration.
The study involved 14 groups of 8 male ferrets weighing between 0.93 kg and 1.45 kg purchased from the company MARSHALL FARMS (NEW YORK, U.S.). Groups were defined as follows: […]
group 1: control group dosed with the vehicle of test substances (sterile water),
group 2: method-control group dosed with a method-control substance, granisetron ([…], RBI®), at a dose of 0.3 mg/kg,
group 3 to 6: group dosed with diyyrazine dihydrochloride at 4 increasing doses of 7.5, 15, 30 and 60 mg/kg,
group 7 to 10: group dosed with the (R) enantiomer of dixyrazine dihydrochloride at 4 increasing doses of 7.5, 15, 30 and 60 mg/kg,
group 11 to 14: group dosed with the (S) enantiomer of drazine dihydrochloride at 4 increasing doses of 7.5, 15, 30 and 60 mg/kg.
On the day prior to the test, animals were fasted and allowed access only to water.
On the morning of the day of the study, free access to food was allowed for 30 minutes. Subsequently, animals were again put on to a water-only fast for 30 minutes before administration of the three compounds, the vehicle or the method-control substance which were administrated orally in a volume of 5 ml/kg.
Cisplatin was administrated by the intravenous route at a dose of 115 mg/m^2 and in a volume of 115 ml/m^2 (i.e. approximately at 10 mg/kg), 60 minutes after treatment. […] Emesis was characterised by abdominal contractions, which were associated with expulsion or attempted expulsion of stomach contents.
The time to onset of emesis was noted. The number of episodes of vomiting and the number of abdominal retches associated with episodes of emesis were also noted.

[6] = tested on: vomiting and nausea in cancerotherapy; details: patients in cancerotherapy, personal interview; cited from earlier work
[7] = highest dose of 60 mg/kg p.o., dihydrochloride, 60 mg/kg
[8] = highest dose of 60 mg/kg p.o., listed as (R) enantiomer of dixyrazine dihydrochloride, dihydrochloride, 60 mg/kg

T3 sequence (P35462 whole entry): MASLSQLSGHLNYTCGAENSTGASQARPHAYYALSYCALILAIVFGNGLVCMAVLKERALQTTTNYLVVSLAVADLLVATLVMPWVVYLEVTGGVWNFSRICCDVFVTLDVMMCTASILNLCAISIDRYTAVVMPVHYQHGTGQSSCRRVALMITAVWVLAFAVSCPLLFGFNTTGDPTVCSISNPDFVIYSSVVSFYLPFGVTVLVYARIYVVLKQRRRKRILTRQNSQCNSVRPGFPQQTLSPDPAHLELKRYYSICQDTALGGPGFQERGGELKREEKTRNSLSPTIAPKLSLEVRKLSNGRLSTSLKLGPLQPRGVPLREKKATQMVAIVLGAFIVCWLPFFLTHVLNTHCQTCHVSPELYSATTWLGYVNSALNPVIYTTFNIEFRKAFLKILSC
D2 dopaminergic receptor, sequence (P61169 1-415 isoform P61169-2): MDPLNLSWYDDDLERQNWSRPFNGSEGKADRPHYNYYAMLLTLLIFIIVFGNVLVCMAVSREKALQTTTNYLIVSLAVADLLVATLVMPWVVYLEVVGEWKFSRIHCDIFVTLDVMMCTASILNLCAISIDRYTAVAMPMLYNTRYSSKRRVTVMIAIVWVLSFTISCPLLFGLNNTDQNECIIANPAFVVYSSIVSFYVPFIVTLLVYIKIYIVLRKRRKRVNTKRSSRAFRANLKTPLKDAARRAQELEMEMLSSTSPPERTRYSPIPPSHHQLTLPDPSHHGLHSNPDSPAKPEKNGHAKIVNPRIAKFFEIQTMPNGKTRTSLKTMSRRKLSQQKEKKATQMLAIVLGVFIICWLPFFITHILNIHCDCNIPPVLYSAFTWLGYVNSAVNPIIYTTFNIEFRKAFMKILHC
T2 sequence (P14842 whole entry): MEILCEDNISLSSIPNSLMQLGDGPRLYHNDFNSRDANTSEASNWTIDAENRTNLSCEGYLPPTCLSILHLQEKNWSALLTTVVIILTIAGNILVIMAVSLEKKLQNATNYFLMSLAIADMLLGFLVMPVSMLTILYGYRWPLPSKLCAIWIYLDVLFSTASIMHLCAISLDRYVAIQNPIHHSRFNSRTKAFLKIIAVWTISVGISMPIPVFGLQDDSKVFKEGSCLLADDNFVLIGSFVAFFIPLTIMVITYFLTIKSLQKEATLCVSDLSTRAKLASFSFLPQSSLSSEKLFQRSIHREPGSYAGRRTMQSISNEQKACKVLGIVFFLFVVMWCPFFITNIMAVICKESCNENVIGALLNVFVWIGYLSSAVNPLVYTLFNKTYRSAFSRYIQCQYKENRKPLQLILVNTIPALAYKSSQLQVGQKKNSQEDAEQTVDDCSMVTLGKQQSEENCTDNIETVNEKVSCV
human H1 histaminic receptor, sequence (P35367 whole entry): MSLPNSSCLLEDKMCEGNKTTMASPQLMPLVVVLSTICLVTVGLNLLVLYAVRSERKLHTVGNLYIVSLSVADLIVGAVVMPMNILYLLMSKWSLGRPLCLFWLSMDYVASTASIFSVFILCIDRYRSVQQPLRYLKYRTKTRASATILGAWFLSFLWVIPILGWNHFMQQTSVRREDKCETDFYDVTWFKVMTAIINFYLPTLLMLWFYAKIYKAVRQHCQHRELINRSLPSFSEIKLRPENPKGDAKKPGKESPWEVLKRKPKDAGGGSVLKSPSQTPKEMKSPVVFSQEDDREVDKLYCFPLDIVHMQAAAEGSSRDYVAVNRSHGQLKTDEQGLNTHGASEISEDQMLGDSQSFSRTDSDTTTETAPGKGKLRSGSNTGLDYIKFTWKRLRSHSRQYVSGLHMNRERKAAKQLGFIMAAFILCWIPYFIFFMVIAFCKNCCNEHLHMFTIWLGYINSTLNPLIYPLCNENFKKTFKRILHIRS

C[C@@H](CN1CCN(CCOCCO)CC1)CN1c2ccccc2Sc2ccccc21 (single isomer, unassigned) [(S) enantiomer (free base)]
percent inhibition of control specific binding ([1]; D4.4, 0.2 μM, mean of duplicate): — (Symbol-represents an inhibition<10%) | percent inhibition of control specific binding ([1]; D4.4, 10 μM, mean of duplicate): 27% | percent inhibition of control specific binding ([2]; H1, 10 μM, mean of duplicate): 101% | percent inhibition of control specific binding (D2 dopaminergic receptor; D2, 10 μM, mean of duplicate): 89% | percent inhibition of control specific binding ([3]; 5-HT2, 10 μM, mean of duplicate): 101% | percent inhibition of control specific binding ([4]; D3, 0.2 μM, mean of duplicate): — (Symbol-represents an inhibition<10%) | percent inhibition of control specific binding ([4]; D3, 10 μM, mean of duplicate): 74%

C[C@H](CN1CCN(CCOCCO)CC1)CN1c2ccccc2Sc2ccccc21 [(R) enantiomer (free base), 2-(2-{4-[(2R)-2-methyl-3-(10H-phenothiazin-10-yl)propyl]-1-piperazinyl}ethoxy)ethanol]
inhibition at 0.1 µM ([1]; D4.4, 0.1 μM, mean of duplicate, read-out: percent inhibition of control specific binding): 40% | inhibition at 10 µM ([1]; D4.4, 10 μM, mean of duplicate, read-out: percent inhibition of control specific binding): 99% | inhibition at 10 µM ([2]; H1, 10 μM, mean of duplicate, read-out: percent inhibition of control specific binding): 101% | inhibition at 10 µM (D2 dopaminergic receptor; D2, 10 μM, mean of duplicate, read-out: percent inhibition of control specific binding): 100% | inhibition at 10 µM ([3]; read-out: percent inhibition of control specific binding, 5-HT2, 10 μM, mean of duplicate): 102% | inhibition at 0.1 µM ([4]; D3, 0.1 μM, mean of duplicate, read-out: percent inhibition of control specific binding): 81% | inhibition at 10 µM ([4]; D3, 10 μM, mean of duplicate, read-out: percent inhibition of control specific binding): 100%

C[C@H](CN1CCN(CCOCCO)CC1)CN1c2ccccc2Sc2ccccc21.Cl.Cl [(R) enantiomer dihydrochloride, 2-(2-{4-[(2R)-2-methyl-3-(10H-phenothiazin-10-yl)propyl]-1-piperazinyl}ethoxy)ethanol dihydrochloride]
IC50 [1]: 158 nM | Stereoselectivity ratio ([1]; D4.4, IC50 of (S) enantiomer/IC50 of (R) enantiomer): 158 | IC50 [2]: 0.2 nM | Stereoselectivity ratio ([2]; H1, IC50 of (S) enantiomer/IC50 of (R) enantiomer): 25 | IC50 (D2 dopaminergic receptor): 2.51 nM | Stereoselectivity ratio (D2 dopaminergic receptor; D2, IC50 of (S) enantiomer/IC50 of (R) enantiomer): 316 | IC50 [3]: 3.98 nM | Stereoselectivity ratio ([3]; 5-HT2, IC50 of (S) enantiomer/IC50 of (R) enantiomer): 16 | Time to onset of emesis ([5]; 7.5 mg/kg p.o.): 81 min | Proportion of animal vomiting ([5]; 7.5 mg/kg p.o.): 5/8 | Time to onset of emesis ([5]; 15 mg/kg p.o.): 80 min | Proportion of animal vomiting ([5]; 15 mg/kg p.o.): 8/8 | Time to onset of emesis ([5]; 30 mg/kg p.o.): 81 min | Proportion of animal vomiting ([5]; 30 mg/kg p.o.): 5/8 | Time to onset of emesis ([5]; 60 mg/kg p.o.): 134 min | suppression of vomiting, number of animals ([5]; 60 mg/kg p.o.): 4 animals out of 8 | Proportion of animal vomiting ([5]; 60 mg/kg p.o.): 4/8* | antiemetic effect (in words) [5, 7]: induced an antiemetic effect | effect on time to onset of emesis (in words) [5, 7]: a tendency to increase the time to onset of emesis | antiemetic effect (in words) [5, 8]: significantly reduce cisplatin-induced emesis | effect on time to onset of emesis (in words) [5, 8]: clear tendency to delay the latency to onset of the first vomiting episode | IC50 [4]: 50.1 nM | Stereoselectivity ratio ([4]; D3, IC50 of (S) enantiomer/IC50 of (R) enantiomer): 63

C[C@@H](CN1CCN(CCOCCO)CC1)CN1c2ccccc2Sc2ccccc21.Cl.Cl [(S) enantiomer dihydrochloride, 2-(2-{4-[(2S)-2-Methyl-3-(10H-phenothiazin-10-yl)propyl]-1-piperazinyl}ethoxy)ethanol dihydrochloride]
IC50 [1]: 25100 nM | IC50 [2]: 5.01 nM | IC50 (D2 dopaminergic receptor): 794 nM | IC50 [3]: 63.1 nM | Time to onset of emesis ([5]; 7.5 mg/kg p.o.): 87 min | Proportion of animal vomiting ([5]; 7.5 mg/kg p.o.): 8/8 | Time to onset of emesis ([5]; 15 mg/kg p.o.): 87 min | Proportion of animal vomiting ([5]; 15 mg/kg p.o.): 8/8 | Time to onset of emesis ([5]; 30 mg/kg p.o.): 82 min | Proportion of animal vomiting ([5]; 30 mg/kg p.o.): 7/8 | Time to onset of emesis ([5]; 60 mg/kg p.o.): 68* minutes | Proportion of animal vomiting ([5]; 60 mg/kg p.o.): 7/8 | pro-emetic properties (in words) ([5]; cisplatin-treated ferrets): undesirable pro-emetic properties | effect on time to onset of emesis (in words) ([5]; highest dose of 60 mg/kg p.o.): statistically significant decrease in the time of onset of emesis | antiemetic effect (in words) ([5]; whatever the dose tested (7.5 to 60 mg/kg p.o.), dihydrochloride): no antiemetic effect | antiemetic effect (in words) ([5]; whatever the dose tested (7.5 to 60 mg/kg p.o.), listed as (S) enantiomer of dixyrazine dihydrochloride, dihydrochloride): inactive in preventing cisplatin-induced emesis | IC50 [4]: 3160 nM

CN1C2CCCC1CC(NC(=O)c1nn(C)c3ccccc13)C2 (stereo not shown) [Granisetron, reference compound]
Time to onset of emesis ([5]; 0.3 mg/kg p.o.): 160* minutes | antiemetic effect (in words) ([5]; 0.3 mg/kg p.o.): significant antiemetic effect | Proportion of animal vomiting ([5]; 0.3 mg/kg p.o.): 3/8* | suppression of vomiting, number of animals ([5]; 0.3 mg/kg p.o., 1 hour before cisplatin i.v.): 5 animals out of 8 | effect on time to onset of emesis (in words) ([5]; 0.3 mg/kg p.o., the 3 animals that still vomited): increase in the time to onset of emesis

Cc1nccn1CC1CCc2c(c3ccccc3n2C)C1=O (stereo not shown) [ondansetron]
effect on nausea (in words) [6]: no clear-cut effect against the nausea | effect on vomiting (in words) [6]: clearly effective in preventing vomiting
